Data published in patent publication US20180305424A1, “Methods of Inducibly Targeting Chromatin Effectors and Compositions for Use in the Same” (The Board of Trustees of the Leland Stanford Junior …, priority 2015, published 2018).
“And” between values parts separate entries of the source, which are not always exact repeats. Equal entries are not always repeated.

Assays:
Assay type in all cases: cell-based, mouse
[1] = test system: BAF complex tethering to the Oct4 locus in CiA MEF cells; assay: OFF/washout experiments: FK1012 competition of rapamycin-tethered BAF complexes, ChIP-qPCR
Protocol: Briefly, adherent CiA MEF cells were treated with 3 nM (final) rapamycin (sirolimus; Sellekchem #S1039) (ON experiments) or 3 nM rapamycin followed by 30 nM FK1012 (OFF/washout experiments) for prescribed times (2.5 minutes-24 hours). For acute time points, cells were harvested rapidly by washing media out once with PBS, scraping cells off plates with a cell scraper, resuspending in CiA fix buffer, and formaldehyde fixing for subsequent ChIP analyses.
(§1) Briefly, for rapid time course assays, adherent CiA MEF cells were washed once in PBS, scraped off plates into fix buffer (50 mM HEPES, 1 mM EDTA, 0.5 mM EGTA, and 100 mM NaCl), resuspended, and immediately formaldehyde fixed. After cross-linking, cells (7-10×10̂6) were washed and sonicated for 13.5 minutes using a Covaris E220 Sonicator (Covaris, Inc., Woburn, Mass.). Chromatin input was reverse crosslinked and evaluated for shearing efficiency and 100-150 μg of chromatin stock was used per immunoprecipitation reaction. […]
(§2) CiA knock-in locus-specific primers were generated with plus (+) and minus (−) direction distances calculated from the middle of the ZFHD1 recruitment domain as well as […] distances calculated from the Oct4 transcription start site (TSS). Briefly, enrichment (bound over input) averages and standard deviations were calculated over n=5 repeat experiments for each primer set. […]

[2] = test system: DNA accessibility at the Oct4 locus in CiA Oct4 MEF cells; assay: Transposase (Tn5) chromatin accessibility assay after FK1012 addition; conditions: post-addition of FK1012 (removal of the BAF complex)
Protocol: Following various recruitment conditions, 5×10̂4 CiA Oct4 MEF cells were harvested, washed once in PBS, once in RSB buffer (10 mM Tris-HCl, pH 7.4, 10 mM NaCl, 3 mM MgCl2), and centrifuged at 500×g for 5 minutes at 4 degrees C. Cells were then lysed in lysis buffer (500 ul RSB buffer+5 ul 10% NP-40) for 5 minutes on ice, spun at 500×g for 5 minutes, resuspended in Tagment DNA/Enzyme Buffer Mix (Illumina Nextera Sample Preparation Kit, Cat. # FC-121-1030), and incubated for 30 minutes at 37° C. Following Tn5 transposase enzyme reaction, DNA was purified using Quiagen MinElute PCR Purification Kit (Cat #28004). Transposed DNA fragments were amplified via qPCR to the appropriate number of cycles and library was purified using a Quiagen PCR Cleanup Kit eluted in 20 ul of elution buffer (10 mM Tris Buffer, pH 8.0). CiA locus-specific qPCR was performed using primers in Supplemental Table 2.

[3] = test system: BAF complex recruitment to the modified Oct4 (Pou5f1) locus in CiA MEF cells; assay: Recruitment assay (ON): rapamycin-induced BAF complex recruitment to the CiA Oct4 locus, ChIP-qPCR; conditions: 24 hours of rapamycin treatment (3 nM); Frb-V5-tagged BAF subunit fusions; CiA MEFs
Description: CiA mouse embryonic fibroblasts (MEFs) containing a modified Oct4 promoter (with 12×ZFHD1 and 6×GAL4 sites upstream of the promoter) were generated, cultured and maintained as previously described (Hathaway et al., “Dynamics and memory of heterochromatin in living cells,” Cell (2012) 149:1447-1460). Briefly, lentiviral delivery constructs bearing an EF1-alpha promoter and either puromycin or blasticidin resistance were generated to contain the constructs described here (FIG. 1a). To generate recruitable forms of BAF complexes, individual subunits (SS18, BRG, BAF47, BAF57) were N-terminally fused to Frb-V5. […]
as §1, with “After cross-linking, cells (7-10×10̂6) were washed and sonicated for 13.5 minutes using a Covaris E220 Sonicator (Covaris, Inc., Woburn, Mass.).” left out
as §2

Compound: FK1012
- Decrease in BAF complex tethering to the Oct4 locus, FK1012 addition versus rapamycin washout (media change) ([1]; 3 nM rapamycin followed by 30 nM FK1012): more rapid, robust decreases
- Time at which PRC2 (Ezh2) and PRC1 (Ring1B) began to reappear ([1]; post-addition of FK1012, paralleled by reappearance of H3K27Me3 and H2AUb1): ~2 h
- Time at which inaccessible chromatin began to reform [2]: 2.5 to 5 h

Compound: CO[C@H]1C[C@@H]2CC[C@@H](C)[C@@](O)(O2)C(=O)C(=O)N2CCCC[C@H]2C(=O)O[C@H]([C@H](C)C[C@@H]2CC[C@@H](O)[C@H](OC)C2)CC(=O)[C@H](C)/C=C(\C)[C@@H](O)[C@@H](OC)C(=O)[C@H](C)C[C@H](C)/C=C/C=C/C=C/1C [rapamycin]
- BAF complex recruitment (fold enrichment over baseline by ChIP-qPCR) [3]: 20-40 fold and 40-60 fold
